Experiment: Measurement of total area by solid phase microextraction GC/FID method
Format: physicochemical
Set-up: unit not given here
Conditions: total area attributable to components other than the glyceryl ethers; 1.0 g glyceryl ether, 15 minutes at 50° C., after deodorization for the stated time
Experimental: The total area, as measured using a solid phase microextraction GC/FID method, was measured for each of glyceryl ethers 1 to 12 following the deodorization. Specifically, 1.0 g of a deodorized glyceryl ether was placed in a container, impurities and by-products contained in the glyceryl ether were adsorbed on fibers of DVB/PDMS (divinylbenzene dispersed/polydimethylsiloxane) by heating for 15 minutes at 50° C., these fibers were placed in a holder, and measurements were carried out using gas chromatography (apparatus: GC-2014, produced by Shimadzu Corporation) under the measurement conditions shown below. The total area attributable to components other than the glyceryl ethers was then calculated on the basis of a JIS K 0114 (2012) absolute calibration curve using the analysis software of the chromatography apparatus.
Column: InertCap (registered trademark) PureWAX (length 30 m, film […] 0.50 μm, inner diameter […])
Carrier flow rate: 124.5 mL/min
Injection port temperature: 260° C.
Detector temperature: 260° C.

| Compound | Total area |
| --- | --- |
| OCC(O)COC1CCCCC1 (stereo not drawn) [Glyceryl ether 12, Monocyclohexyl glyceryl ether] | 50,000 |
| CCCCCCOCC(O)CO (stereo not drawn) [Glyceryl ether 5, Monohexyl glyceryl ether] | 60,000 |
| CCCCCCOCC(O)CO (stereo not drawn) [Glyceryl ether 6, Monohexyl glyceryl ether] | 50,000 |
| CCCCCCOCC(O)CO (stereo not drawn) [Glyceryl ether 4, Monohexyl glyceryl ether] | 80,000 |
| OCC(O)COC1CCCCC1 (stereo not drawn) [Glyceryl ether 10, Monocyclohexyl glyceryl ether] | 90,000 |
| CCCCCCOCC(O)CO (stereo not drawn) [Glyceryl ether 3, Monohexyl glyceryl ether] | 80,000 |
| OCC(O)COC1CCCCC1 (stereo not drawn) [Glyceryl ether 11, Monocyclohexyl glyceryl ether] | 50,000 |
| OCC(O)COC1CCCCC1 (stereo not drawn) [Glyceryl ether 8, Monocyclohexyl glyceryl ether] | 300,000 |
| OCC(O)COC1CCCCC1 (stereo not drawn) [Glyceryl ether 9, Monocyclohexyl glyceryl ether] | 150,000 |
| CCCCCCOCC(O)CO (stereo not drawn) [Glyceryl ether 7, Monohexyl glyceryl ether] | 50,000 |
| CCCCCCOCC(O)CO (stereo not drawn) [Glyceryl ether 1, Monohexyl glyceryl ether] | 200,000 |
| CCCCCCOCC(O)CO (stereo not drawn) [Glyceryl ether 2, Monohexyl glyceryl ether] | 120,000 |

From patent US11918668B2, “Method for producing glyceryl ether-containing composition, and glyceryl ether-containing composition” (ADEKA CORPORATION, priority 2018, dated 2024)
